# Measured values taken from patent US8178506B2, “Oligomeric compounds and compositions for use in modulation of small non-coding RNAs” (Regulus Therapeutics Inc., priority 2003, dated 2012).
# In the oligonucleotide strings, read from the 5' end, every base follows the letter of its sugar. An asterisk marks phosphorothioate; unmarked linkages are phosphodiester. Other units and linkages are bracketed, terminal groups are in braces. A string of capitals states the bases alone. e = 2'-O-(2-methoxyethyl) (MOE); [5mC] = 5-methylcytosine; d = 2'-deoxy (DNA)
# Columns and labels:
# [1] = test system: IL-6 mRNA; assay: IL-6 mRNA in LPS-activated primary murine macrophages; type: cell-based, mouse; conditions: average of 3 treatments
# Procedure, shortened: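 Thioglycollate-elicited peritoneal macrophages from female C57Bl/6 mice, transfected with miRNA-targeting oligomeric compounds via FuGENE 6 (1 μL per 100 nM compound) for ~24–28 h at 37 °C, optionally primed 4 h with 100 ng/mL IFN-gamma, then stimulated 24 h with 100 ng/mL LPS. IL-6 mRNA quantified by real-time PCR.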
# [2] = test system: mir-23b miRNA; assay: pGL3-mir-23b sensor luciferase assay in HeLa cells; type: cell-based, human; conditions: pGL3-mir-23b sensor-expressing HeLa cells
# Source text: In order to assess the ability of miRNAs to bind predicted miRNA binding sites and regulate the expression of the luciferase reporter, in some embodiments, expression systems based on the pGL3-Control (Promega Corp., Madison Wis.) reporter vector and comprising either a mir-15a, mir-21, or a mir-23b miRNA binding site were developed and used in transient transfections of HeLa cells to determine whether the endogenous mir-15a, mir-21, or mir-23b miRNAs, respectively, could repress luciferase reporter gene expression.
# The pGL3-mir-23b sensor plasmid was created by cloning the sequence ([…]; SEQ ID NO: 307), representing a sequence complementary to the mir-23b miRNA, into the Xba site of the pGL3-Control plasmid, placing the potential miRNA-binding site in the 3′UTR of the luciferase reporter. This reporter plasmid was used to transfect HeLa cells and it was observed that the endogenous mir-23b miRNA was able to inhibit luciferase expression from the pGL3-mir-23b sensor plasmid. Thus, to further evaluate the ability of the mir-23b miRNA to bind this target site encoded by the pGL3-mir-23b sensor plasmid, and to assess the ability of oligomeric compounds to interfere with mir-23b-mediated silencing, pGL3-mir-23b sensor-expressing HeLa cells were treated with varying concentrations (1.3-, 5- or 20 nM) of the following oligomeric compounds: ISIS Number 327889 (SEQ ID NO: 307), a phosphorothioate uniform 2′-MOE oligomeric compound, and ISIS Number 340925 (SEQ ID NO: 307), a 2′-MOE 5-10-8 gapmer oligomeric compound, both targeting mir-23b. The uniform 2′-MOE phosphorothioate oligomeric compound ISIS Number 327924 (SEQ ID NO: 342) targeting an unrelated miRNA (mir-129-2) was used as a negative control. The data are the average of three trials, and are presented in Table 43 as relative luciferase activity (normalized to pRL-CMV luciferase plasmid only, not treated with oligomeric compound).
# [3] = test system: mir-143 binding sites; assay: pGL3-mir-143 sensor luciferase assay in HeLa cells; type: cell-based, human; conditions: Table 41, pGL3-mir-143 sensor, 24 hours
substance,measurement,setting,value
"129690 (antisense TTAGAATACGTCGCGTTATG; sugars from the 5' end e5 d10 e5, all phosphorothioate, methylation of C not given here) [compound 129690]","IL-6 mRNA expression, % UTC","[1]; 75 nM, +IFN",92 % UTC
same,"IL-6 mRNA expression, % UTC","[1]; 75 nM, −IFN",98 % UTC
same,"IL-6 mRNA expression, % UTC","[1]; 150 nM, +IFN",86 % UTC
same,"IL-6 mRNA expression, % UTC","[1]; 150 nM, −IFN",99 % UTC
same,"IL-6 mRNA expression, % UTC","[1]; 300 nM, +IFN",94 % UTC
same,"IL-6 mRNA expression, % UTC","[1]; 300 nM, −IFN",109 % UTC
same,"IL-6 mRNA expression, % UTC","[1]; 600 nM, +IFN",203 % UTC
same,"IL-6 mRNA expression, % UTC","[1]; 600 nM, −IFN",258 % UTC
327924 (antisense eG*e[5mC]*eA*eA*eG*e[5mC]*e[5mC]*e[5mC]*eA*eG*eA*e[5mC]*e[5mC]*eG*e[5mC]*eA*eA*eA*eA*eA*eG) [compound 327924],Fold change luciferase,[2]; 1.3 nM,1.15
same,Fold change luciferase,[2]; 5 nM,0.68
same,Fold change luciferase,[2]; 20 nM,0.92
"ds-mir-143: double-stranded RNA of ISIS 342199 hybridized to its perfect complement ISIS 342200 (sense UGAGAUGAAGCACUGUAGCUCA; antisense UGAGCUACAGUGCUUCAUCUCA; RNA, backbone not given here)",luciferase expression,[3]; 11 nM,15.0 percent untreated control
same,luciferase expression,[3]; 33 nM,15.0 percent untreated control
same,luciferase expression,[3]; 100 nM,11.1 percent untreated control
